Results published in patent publication US12162858B2, “Quinoline derivatives as inhibitors of AXL/MER RTK and CSF1R” (QURIENT CO., LTD., priority 2018, dated 2024).
Read-outs that look alike come from different tables or passages of the source.

What was measured:
CSF1R [1] = target: T1, CSF1R (Homo sapiens, UniProt P07333); test: Cellular CSF1R inhibition ELISA (p-CSF1R, M-CSF-induced) using THP-1 cells; type: cell-based; design: THP-1 cells act as a model for human monocytes; endogenous in cells; host or cells: THP-1
T1 sequence (P07333 20-972): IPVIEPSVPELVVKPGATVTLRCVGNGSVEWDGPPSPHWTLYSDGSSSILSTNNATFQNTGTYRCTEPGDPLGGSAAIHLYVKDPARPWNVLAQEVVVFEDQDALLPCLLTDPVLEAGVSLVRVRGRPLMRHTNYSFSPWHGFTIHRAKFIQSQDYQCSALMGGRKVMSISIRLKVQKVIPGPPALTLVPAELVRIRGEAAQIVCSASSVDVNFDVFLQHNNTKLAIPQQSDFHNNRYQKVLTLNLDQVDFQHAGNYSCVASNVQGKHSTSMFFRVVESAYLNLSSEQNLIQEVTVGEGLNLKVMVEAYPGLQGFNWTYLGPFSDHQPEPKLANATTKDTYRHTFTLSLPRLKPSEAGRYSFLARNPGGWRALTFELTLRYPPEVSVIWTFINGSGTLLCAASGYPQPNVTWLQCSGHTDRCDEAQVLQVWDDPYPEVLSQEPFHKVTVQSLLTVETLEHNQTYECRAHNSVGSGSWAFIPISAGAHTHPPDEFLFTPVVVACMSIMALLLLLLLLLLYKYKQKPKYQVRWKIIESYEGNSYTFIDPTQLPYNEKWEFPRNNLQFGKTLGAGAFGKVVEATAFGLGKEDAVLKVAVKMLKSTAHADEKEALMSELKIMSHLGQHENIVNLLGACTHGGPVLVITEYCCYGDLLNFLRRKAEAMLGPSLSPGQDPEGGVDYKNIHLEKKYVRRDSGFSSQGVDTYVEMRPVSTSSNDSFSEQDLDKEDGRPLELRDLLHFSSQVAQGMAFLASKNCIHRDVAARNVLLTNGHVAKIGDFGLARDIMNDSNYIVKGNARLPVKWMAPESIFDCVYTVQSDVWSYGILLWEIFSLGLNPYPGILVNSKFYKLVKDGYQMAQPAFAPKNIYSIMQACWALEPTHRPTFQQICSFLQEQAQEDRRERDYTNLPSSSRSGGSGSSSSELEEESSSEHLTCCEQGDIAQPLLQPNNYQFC
Source text: The normal proto-oncogene c-fms encodes the macrophage growth factor (M-CSF, also known as CSF1) receptor involved in growth, survival, and differentiation along the monocyte-macrophage lineage. THP-1 cells act as a model for human monocytes. It confirms that an increased phosphorylation of CSF1R (p-CSF1R) can be observed, when induced by CSF1R ligand, CSF1.
The THP-1 cells should be maintained from 5×10^5 to 1×10^6 cells/ml in the cell culture flask. After centrifugation, the supernatant is aspirated. The cell pellet is re-suspended with pre-warmed growth medium (RPMI1640, 10% FBS, 0.05 mM 2-Mercaptoethanol) and cells are separated by pipetting 6 times up and down with a 10 ml serological pipette. The cell suspension has to be diluted to a final concentration of 2×10^5 cells per 80 μl with pre-warmed growth medium. 80 μl of cell suspension is added to all wells of plates. Cell-plates are incubated at 37° C./5% CO2. Dissolve compound in 100% DMSO to make 10 mM stock solutions (Aliquots stored in the Nitrogen Cabinet). Dilute 10 mM compounds solutions for 2-fold in 100% DMSO to get 5 mM solutions (10 μl+10 μl DMSO), and then make a 3-fold serial dilution (10 μl+20 μl DMSO) for 10 doses. For reference compounds: Dilute 10 mM compounds solutions for 20-fold in 100% DMSO to get 0.5 mM solutions (2 μl+38 μl DMSO), and then make a 3-fold serial dilution (10 μl+20 μl DMSO) for 10 doses. Transfer 2 μl diluted compounds to 198 μl medium to get solution of 50 μM concentration at top point for compounds and 5 μM for reference compounds. Then transfer 20 μl cpd solution into assay plate (Duplicate wells). The plate is incubated at 37° C./5% CO2 for 24 h. The final concentration of DMSO in all wells is […]. Reconstitute human M-CSF at 50 μg/ml in sterile water. (Aliquots stored in −80° C.). 1:1000 dilute human M-CSF by fresh medium to 50 ng/ml. After 24 h compounds treatment, transfer 25 μl diluted human M-CSF (50 ng/ml) to cell plate according to the plate map. The final concentration of human M-CSF in all wells is 10 ng/ml.
The plates is incubated at 37° C./5% CO2 for 5 min. In the beginning the appropriate amount of lysis buffer complete (100 μL/well) is prepared and stored on ice. After 5 min human M-CSF stimulation, wash plates once with 300 μL ice cold PBS. Then 100 μl lysis buffer is added to each well. The plate is shacked for 40 min at 4° C. Plates can now be stored at −20° C. After equilibrate the micro-well strips at room temperature, break off the required number of micro-wells. Place the micro-wells in the strip holder. Unused micro-wells must be resealed and stored at 4° C. immediately. Add 90 μl of cell lysate to the appropriate well. Seal with tape and press firmly onto top of micro-wells. Incubate the plate for 2 h at 37° C. Gently remove the tape and wash wells 4 times with 1× Wash Buffer, 200 μl each time for each well. Add 100 μl of reconstituted Detection Antibody (green color) to each well. Seal with tape and incubate the plate at 37° C. for 1 h. Repeat wash procedure. Add 100 μl of reconstituted HRP-Linked secondary antibody to each well. Seal with tape and incubate the plate for 30 min at 37° C. Repeat wash procedure. Add 100 μl of TMB Substrate to each well. Seal with tape and incubate the plate for 10 min at 37° C. or 30 min at 25° C. Calculations and Formulas: The following calculations and formulas are used for data analysis using XL Fit software: The curve fitting was made using the Sigmoidal Dose-Response Model (Fit model, 205).

CSF1R [2] = target: T1, CSF1R; test: KINOMEscan competition binding assay for CSF1R; design: DNA tag for qPCR (not a peptide); host or cells: E. coli/T7 phage or HEK-293; details: @ 0.1 uM
Experimental: KINOMEscan™ is based on a competition binding assay that quantitatively measures the ability of a compound to compete with an immobilized, active-site directed ligand. The assay is performed by combining three components: DNA-tagged kinase; immobilized ligand; and a test compound. The ability of the test compound to compete with the immobilized ligand is measured via quantitative PCR of the DNA tag.
E. coli were grown to log-phase and infected with T7 phage and incubated with shaking at 32° C. until lysis. The lysates were centrifuged and filtered to remove cell debris. The remaining kinases were produced in HEK-293 cells and subsequently tagged with DNA for qPCR detection. Streptavidin-coated magnetic beads were treated with biotinylated small molecule ligands for 30 minutes at room temperature to generate affinity resins for kinase assays. The liganded beads were blocked with excess biotin and washed with blocking buffer (SeaBlock (Pierce), 1% BSA, 0.05% Tween 20, 1 mM DTT) to remove unbound ligand and to reduce non-specific binding. Binding reactions were assembled by combining kinases, liganded affinity beads, and test compounds in 1× binding buffer (20% SeaBlock, 0.17×PBS, 0.05% Tween 20, 6 mM DTT). Test compounds were prepared as 111× stocks in 100% DMSO. Kds were determined using an 11-point 3-fold compound dilution series with three DMSO control points. All compounds for Kd measurements are distributed by acoustic transfer (non-contact dispensing) in 100% DMSO. The compounds were then diluted directly into the assays such that the final concentration of DMSO was 0.9%. In case of % inhibition, test compounds were prepared as 40× stocks in 100% DMSO and directly diluted into the assay. All reactions performed in polypropylene 384-well plate. Each was a final volume of 0.02 ml. The assay plates were incubated at room temperature with shaking for 1 hour and the affinity beads were washed with wash buffer (1×PBS, 0.05% Tween 20). The beads were then re-suspended in elution buffer (1×PBS, 0.05% Tween 20, 0.5 μM non-biotinylated affinity ligand) and incubated at room temperature with shaking for 30 minutes. The kinase concentration in the eluates was measured by qPCR.
The CSF1R kinase binding activity results are shown in tables 1 (Kd) and 2 (percent inhibition at a concentration of 0.1 uM of compound to be tested).
Binding constants (Kds) were calculated with a standard dose-response curve using the Hill equation: […]
The Hill Slope was set to −1.
Curves were fitted using a non-linear least square fit with the Levenberg-Marquardt algorithm.
Binding % inhibition were calculated with as below:
[formula] • negative control=DMSO (100% Ctrl) • positive control=control compound (0% Ctrl)

[3] = read-out: CSF1R kinase binding activity, Percent (%) inhibition
[4] = read-out: CSF1R kinase binding activity, Range

Structure (SMILES)	IC50 (CSF1R [1])	inhibition at 0.1 µM (CSF1R [2]; [3])	inhibition at 0.1 µM (CSF1R [2]; [4])
COc1cc2nccc(Oc3ccc(NC(=O)c4nn(C5CC5)cc4OCC(F)(F)F)nn3)c2cc1OC [Compound 112]	500 to 1000 nM	97%	≥ 80%
COc1cc2nccc(Oc3ccc(NC(=O)c4nn(C5CC5)cc4OCCF)nn3)c2cc1OC [Compound 113]	< 500 nM	82%	≥ 80%
CCCn1cc(OCC(F)(F)F)c(C(=O)Nc2ccc(Oc3ccnc4cc(OC)c(OC)cc34)c(C(F)(F)F)c2)n1 [Compound 114]	≥ 1000 nM	27%	< 50%
COc1cc2nccc(Oc3ccc(NC(=O)c4nn(CCOC5CC5)cc4OCC(F)(F)F)c(F)c3)c2cc1OC [Compound 115]	500 to 1000 nM	94%	≥ 80%
COc1cc2nccc(Oc3ccc(NC(=O)c4nn(CCOC5CC5)cc4OCC(F)(F)F)cc3F)c2cc1OC [Compound 116]	500 to 1000 nM	93%	≥ 80%
COc1cc2nccc(Oc3ccc(NC(=O)c4nn(CCOC5CC5)cc4OCC(F)(F)F)cc3C)c2cc1OC [Compound 117]	< 500 nM	94%	≥ 80%
COc1cc2nccc(Oc3ccc(NC(=O)c4nn(CCOC5CC5)cc4OCC(F)(F)F)cc3)c2cc1OC [Compound 118]	500 to 1000 nM	93%	≥ 80%
CNCCn1cc(OCC(F)(F)F)c(C(=O)Nc2ccc(Oc3ccnc4cc(OC)c(OC)cc34)cc2)n1 [Compound 119]	≥ 1000 nM	9%	< 50%
COc1cc2nccc(Oc3ccc(NC(=O)c4nn(CCOC5CC5)cc4OCC(F)(F)F)nn3)c2cc1OC [Compound 120]	500 to 1000 nM	95%	≥ 80%
COc1cc2nccc(Oc3ccc(NC(=O)c4nn(C5CCCC5)cc4OCC(F)(F)F)nn3)c2cc1OC [Compound 121]	< 500 nM	98%	≥ 80%
COc1cc2nccc(Oc3ccc(NC(=O)c4nn(C5CCNC5)cc4OCC(F)(F)F)nn3)c2cc1OC (stereo not drawn) [Compound 122]	≥ 1000 nM	19%	< 50%
COc1cc2nccc(Oc3ccc(NC(=O)c4nn(CC5COC5)cc4OCC(F)(F)F)nn3)c2cc1OC [Compound 123]	≥ 1000 nM	72%	50 to 80%
COc1cc2nccc(Oc3ccc(NC(=O)c4nn(CC(C)C)cc4OCC(F)(F)F)nn3)c2cc1OC [Compound 124]	500 to 1000 nM	95%	≥ 80%
COc1cc2nccc(Oc3ccc(NC(=O)c4nn(CCN)cc4OCC(F)(F)F)nn3)c2cc1OC [Compound 125]	≥ 1000 nM	38%	< 50%
COCCn1cc(OCC(F)(F)F)c(C(=O)Nc2ccc(Oc3ccnc4cc(OC)c(OC)cc34)nn2)n1 [Compound 126]	≥ 1000 nM	78%	50 to 80%
CNCCn1cc(OCC(F)(F)F)c(C(=O)Nc2ccc(Oc3ccnc4cc(OC)c(OC)cc34)nn2)n1 [Compound 127]	≥ 1000 nM	38%	< 50%
COc1cc2nccc(Oc3ccc(NC(=O)c4nn(C5CCOC5)cc4OCC(F)(F)F)nn3)c2cc1OC (stereo not drawn) [Compound 128]	< 500 nM	94%	≥ 80%
COc1cc2nccc(Oc3ccc(NC(=O)c4nn(CCO)cc4OCC(F)(F)F)cn3)c2cc1OC [Compound 129]	≥ 1000 nM	24%	< 50%
COc1cc2nccc(Oc3ccc(NC(=O)c4nn(CCOC5CC5)cc4OCC(F)(F)F)cn3)c2cc1OC [Compound 130]	≥ 1000 nM	41%	< 50%
COc1cc2nccc(Oc3ccc(NC(=O)c4nn(C5CCCC5)cc4OCC(F)(F)F)cn3)c2cc1OC [Compound 131]	≥ 1000 nM	21%	< 50%
